The values below come from patent US20090099195A1 (ASTRAZENECA AB, priority 2007, published 2009).

Experiment [1] has as its target T1, hP2X3 (human Purinergic P2X receptors subtype 3), clone B (Homo sapiens, UniProt P56373).
T1 sequence (P56373 1-397): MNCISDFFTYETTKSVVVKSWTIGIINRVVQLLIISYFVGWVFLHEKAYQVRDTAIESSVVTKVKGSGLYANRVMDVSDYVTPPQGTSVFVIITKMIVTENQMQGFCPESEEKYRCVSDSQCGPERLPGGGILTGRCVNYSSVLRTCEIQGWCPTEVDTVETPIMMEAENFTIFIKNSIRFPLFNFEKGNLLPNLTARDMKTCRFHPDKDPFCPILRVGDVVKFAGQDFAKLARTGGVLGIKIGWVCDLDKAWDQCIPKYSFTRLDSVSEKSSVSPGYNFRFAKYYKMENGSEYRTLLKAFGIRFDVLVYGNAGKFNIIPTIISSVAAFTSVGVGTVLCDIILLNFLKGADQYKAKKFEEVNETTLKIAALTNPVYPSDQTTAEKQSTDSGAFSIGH
Nature of the experiment: hP2X3 FLIPR calcium (Fluo-4) antagonist assay, clone B. The settings on record: Human P2X3 FLIPR Clone B IC50 (nM), RLE cells expressing hP2X3 clone B (NM_002559); agonist 500 nM α,β-methylene-ATP.
Description: (§1) The assay used a calcium indicator dye (Fluo-4) that emits fluorescence, the intensity of which is related to the concentration of calcium that entered the cell when P2X3 was activated and the channel opened. Activation of hP2X3 or rat P2X3 and rat P2X2/3 (from the coexpression of rat P2X3 and rat P2×2) is elicited the by P2X3 agonist α,β methylene-ATP (Sigma M6517), and the resulting fluorescence is measured with a FLIPR II™ instrument (Molecular Devices). Compounds are tested for their ability to inhibit the agonist-induced fluorescent signal.
(§2) For the rat P2X2/3 HEK-TREX cells, induction of the rat P2X3 expression is used to generate the rat P2X2/3 channels in HEK-TREX cells and performed by addition of 1 μg/mL tetracycline (Invitrogen) 24 h prior to compounds testing to the HEK-TREX expressing the rat P2X2 constitutively. On the day of the experiment, the cells and test compounds are prepared as follows. […] After preparing the compounds, the medium is removed from the cell plates by inversion. A loading solution of 30 μL assay buffer containing 4 μM of the calcium indicator dye FLUO-4 AM (Molecular Probes F14202) is added to each well using a Multidrop (Labsystems). […] The incubation is terminated by washing the cells four times in assay buffer using a Skatron Embla (Molecular Devices), and 25 μL of assay buffer was left in each well. Cell plates are then transferred to the FLIPR. Experiments are initiated by measuring a baseline fluorescence reading for 10 seconds, followed by the addition of 12.5 μL of cpds and data sampling for a total 280 seconds. The experiments are terminated by addition of 12.5 μL of a reference agonist (500 nM α,β-methylene-ATP) or buffer, producing a final assay volume of 50 μL followed by data sampling for an additional 280 seconds.
(§3) In P2X3 antagonist experiments (human and rat assays) data are analysed as normalised maximal peak fluorescence monitored following agonist addition and calculated as percent of relative fluorescent counts from control agonist. The dose-response antagonist inhibition curves are analyzed in a 4-parameter sigmoidal fit using a non-linear curve-fitting program (XLfit version 5.0.6, ID Business Solutions Limited, Guildford, UK).

In experiment [2] the target is T2, hP2X3 (human Purinergic P2X receptors subtype 3), clone A (Homo sapiens, UniProt P56373).
T2 sequence (P56373 1-397): T1 sequence (P56373 1-397)
In words: hP2X3 FLIPR calcium (Fluo-4) antagonist assay, clone A. The conditions noted are these: Human P2X3 FLIPR Clone A Mean IC50 (nM), RLE cells expressing hP2X3 clone A (AB016608); agonist 500 nM α,β-methylene-ATP.
Description: as §1, §2, §3

With `CC(=O)N1CCN(c2nc(N[C@H](C)c3ccc(OC(C)C)c(F)c3)c3c(n2)C(=O)N(C(C)C)C3)CC1` [Example 190, (R)-2-(4-acetylpiperazin-1-yl)-4-(1-(3-fluoro-4-isopropoxyphenyl)ethylamino)-6-isopropyl-5H-pyrrolo[3,4-d]pyrimidin-7(6H)-one], the IC50 (in general, the concentration that gives 50% inhibition) in experiment [1] was 44 nM; in experiment [2], 47.2 nM.

Consider `CC(=O)N1CCN(c2nc(N[C@H](C)c3ccc(OC4CCC4)cc3)c3c(n2)C(=O)N(C(C)C)C3)CC1` [Example 191, (R)-2-(4-acetylpiperazin-1-yl)-4-(1-(4-cyclobutoxyphenyl)ethylamino)-6-isopropyl-5H-pyrrolo[3,4-d]pyrimidin-7(6H)-one], for which the IC50 in experiment [1] came to 62 nM; in experiment [2], 81.3 nM.

Regarding `CCOc1ccc(CC(C)(C)Nc2nc(N3CCN(C(C)=O)CC3)nc3c2CN(C(C)C)C3=O)cc1` [Example 198, 2-(4-acetylpiperazin-1-yl)-4-(1-(4-ethoxyphenyl)-2-methylpropan-2-ylamino)-6-isopropyl-5H-pyrrolo[3,4-d]pyrimidin-7(6H)-one], the values for the half-maximal inhibitory concentration (IC50) in experiment [1] and in experiment [2] were 640 nM and 1230 nM, respectively.

Turning to `CC(=O)N1CCN(c2nc(NCc3nc4ccccc4s3)c3c(n2)C(=O)N(C(C)C)C3)CC1` [Example 199, 2-(4-acetylpiperazin-1-yl)-4-(benzo[d]thiazol-2-ylmethylamino)-6-isopropyl-5H-pyrrolo[3,4-d]pyrimidin-7(6H)-one], the values for the concentration for half-maximal inhibition (IC50) in experiment [1] and in experiment [2] were 2300 nM and 5050 nM, respectively.

`CC(C)N1Cc2c(nc(N3CCN(C)C(=O)C3)nc2N(C)Cc2cc3ccccc3cn2)C1=O` [Example 200, 6-isopropyl-4-((isoquinolin-3-ylmethyl)(methyl)amino)-2-(4-methyl-3-oxopiperazin-1-yl)-5H-pyrrolo[3,4-d]pyrimidin-7(6H)-one]: the figures for the IC50 in experiment [1] and in experiment [2] were 790 nM and 501 nM, respectively.

Take `CCOc1ccc([C@@H](C)Nc2nc(N3CCN(C)C(=O)C3)nc3c2CN(C(C)C)C3=O)cc1F` [Example 201, (R)-4-(1-(4-ethoxy-3-fluorophenyl)ethylamino)-6-isopropyl-2-(4-methyl-3-oxopiperazin-1-yl)-5H-pyrrolo[3,4-d]pyrimidin-7(6H)-one]: the half-maximal inhibitory concentration (IC50) in experiment [1] turned out to be 410 nM; in experiment [2], 723 nM.

On to `CCOc1ccc([C@@H](C)Nc2nc(N3CCN(C(C)=O)CC3)nc3c2CN(C(C)C)C3=O)c(OC)c1` [Example 202, (R)-2-(4-acetylpiperazin-1-yl)-4-(1-(4-ethoxy-2-methoxyphenyl)ethylamino)-6-isopropyl-5H-pyrrolo[3,4-d]pyrimidin-7(6H)-one], for which the IC50 was 51 nM in experiment [1] and 47 nM in experiment [2].

Consider `COc1cc(OC(C)C)ccc1[C@@H](C)Nc1nc(N2CCN(C(C)=O)CC2)nc2c1CN(C(C)C)C2=O` [Example 203, (R)-2-(4-acetylpiperazin-1-yl)-4-(1-(4-isopropoxy-2-methoxyphenyl)ethylamino)-6-isopropyl-5H-pyrrolo[3,4-d]pyrimidin-7(6H)-one], for which the IC50 in experiment [1] came out at 62 nM; in experiment [2], 65.8 nM.

As for `CCOc1ccc([C@@H](C)Nc2nc(N3CCN(C(C)=O)CC3)nc3c2CN(C(C)C)C3=O)c(F)c1` [Example 204, (R)-2-(4-acetylpiperazin-1-yl)-4-(1-(4-ethoxy-2-fluorophenyl)ethylamino)-6-isopropyl-5H-pyrrolo[3,4-d]pyrimidin-7(6H)-one], the IC50 in experiment [1] was 38 nM; in experiment [2] it was 50.4 nM.

As for `CC(=O)N1CCN(c2nc(NCc3cc4ccccc4c(C)n3)c3c(n2)C(=O)N(C(C)C)C3)CC1` [Example 259, 2-(4-acetylpiperazin-1-yl)-6-isopropyl-4-((1-methylisoquinolin-3-yl)methylamino)-5H-pyrrolo[3,4-d]pyrimidin-7(6H)-one], the values for the concentration for half-maximal inhibition (IC50) in experiment [1] and in experiment [2] were 16 nM and 27.2 nM, respectively.

For `CCOc1ccc([C@@H](C)N(C)c2nc(N3CCN(C(C)=O)CC3)nc3c2CN(C(C)C)C3=O)cc1F` [Example 262, (R)-2-(4-acetylpiperazin-1-yl)-4-((1-(4-ethoxy-3-fluorophenyl)ethyl)(methyl)amino)-6-isopropyl-5H-pyrrolo[3,4-d]pyrimidin-7(6H)-one], the half-inhibitory concentration (IC50) in experiment [1] is 85 nM; in experiment [2], 84.5 nM.

Consider `CC(=O)N1CCN(c2nc3c(c(N(C)Cc4cc5ccccc5c(C)n4)n2)CN(C(C)C)C3=O)CC1` [Example 263, 2-(4-acetylpiperazin-1-yl)-6-isopropyl-4-(methyl((1-methylisoquinolin-3-yl)methyl)amino)-5H-pyrrolo[3,4-d]pyrimidin-7(6H)-one], for which the figures for the IC50 in experiment [1] and in experiment [2] were 94 nM and 85 nM, respectively.

`CC(=O)N1CCN(c2nc3c(c(N4CCCC4c4ccc(F)cc4)n2)CN(C(C)C)C3=O)CC1` (centres unmarked) [Example 292, 2-(4-acetylpiperazin-1-yl)-4-[2-(4-fluorophenyl)pyrrolidin-1-yl]-6-(1-methylethyl)-5,6-dihydro-7H-pyrrolo[3,4-d]pyrimidin-7-one]: the IC50 in experiment [1] was found to be 3600 nM; in experiment [2], 4950 nM.

Regarding `COCc1ccc(CC2CCCN2c2nc(N3CCN(C(C)=O)CC3)nc3c2CN(C(C)C)C3=O)cc1` (centres unmarked) [Example 293, 2-(4-acetylpiperazin-1-yl)-4-{2-[4-(methoxymethyl)benzyl]pyrrolidin-1-yl}-6-(1-methylethyl)-5,6-dihydro-7H-pyrrolo[3,4-d]pyrimidin-7-one], the 50% inhibitory concentration (IC50) in experiment [1] was 1400 nM; in experiment [2] it was 1590 nM.

Consider `CC(=O)c1ccc(CC2CCCN2c2nc(N3CCN(C(C)=O)CC3)nc3c2CN(C(C)C)C3=O)cc1` (centres unmarked) [Example 294, 4-[2-(4-acetylbenzyl)pyrrolidin-1-yl]-2-(4-acetylpiperazin-1-yl)-6-(1-methylethyl)-5,6-dihydro-7H-pyrrolo[3,4-d]pyrimidin-7-one], for which the half-inhibitory concentration (IC50) was 980 nM in experiment [1] and 1840 nM in experiment [2].

Turning to `COc1ccc(C2CCCN2c2nc(N3CCN(C(C)=O)CC3)nc3c2CN(C(C)C)C3=O)cc1C` (centres unmarked) [Example 295, 2-(4-acetylpiperazin-1-yl)-4-[2-(4-methoxy-3-methylphenyl)pyrrolidin-1-yl]-6-(1-methylethyl)-5,6-dihydro-7H-pyrrolo[3,4-d]pyrimidin-7-one], the IC50 in experiment [1] was 730 nM; in experiment [2] it was 824 nM.

Regarding `CC(=O)N1CCN(c2nc3c(c(N4CCCC4c4ccc(C)cc4)n2)CN(C(C)C)C3=O)CC1` (centres unmarked) [Example 296, 2-(4-acetylpiperazin-1-yl)-6-(1-methylethyl)-4-[2-(4-methylphenyl)pyrrolidin-1-yl]-5,6-dihydro-7H-pyrrolo[3,4-d]pyrimidin-7-one], the half-maximal inhibitory concentration (IC50) in experiment [1] was 1400 nM; in experiment [2] it was 1190 nM.

With `CC(=O)N1CCN(c2nc3c(c(N4CCCC4c4ccc(Cl)c(Cl)c4)n2)CN(C(C)C)C3=O)CC1` (centres unmarked) [Example 297, 2-(4-acetylpiperazin-1-yl)-4-[2-(3,4-dichlorophenyl)pyrrolidin-1-yl]-6-(1-methylethyl)-5,6-dihydro-7H-pyrrolo[3,4-d]pyrimidin-7-one], the IC50 was determined as 300 nM in experiment [1] and 322 nM in experiment [2].

For the molecule `CC[C@H](C)N1Cc2c(NCc3cnc4ccccc4c3)nc(N3CCN(C(C)=O)CC3)nc2C1=O` [Example 316, 2-(4-acetylpiperazin-1-yl)-6-[(1S)-1-methylpropyl]-4-[(quinolin-3-ylmethyl)amino]-5,6-dihydro-7H-pyrrolo[3,4-d]pyrimidin-7-one], the IC50 in experiment [1] came out at 28 nM; in experiment [2], 35.5 nM.

With `CC[C@H](C)N1Cc2c(nc(N3CCN(C(C)=O)CC3)nc2N(C)Cc2cnc3ccccc3c2)C1=O` [Example 319, 2-(4-acetylpiperazin-1-yl)-6-[(1S)-1-methylpropyl]-4-[methyl(quinolin-3-ylmethyl)amino]-5,6-dihydro-7H-pyrrolo[3,4-d]pyrimidin-7-one], the 50% inhibitory concentration (IC50) in experiment [1] stood at 47 nM; in experiment [2], 53.6 nM.

Take `CCOc1ccc([C@@H](C)Nc2nc(N3CCN(C(C)=O)CC3)nc3c2CN([C@@H](C)CC)C3=O)cc1F` [Example 320, 2-(4-acetylpiperazin-1-yl)-4-{[(1R)-1-(4-ethoxy-3-fluorophenyl)ethyl]amino}-6-[(1S)-1-methylpropyl]-5,6-dihydro-7H-pyrrolo[3,4-d]pyrimidin-7-one]: the IC50 in experiment [1] is 54 nM; in experiment [2], 69.1 nM.

Turning to `CC(=O)N1CCN(c2nc(N[C@H](C)c3ccc(C#N)cc3)c3c(n2)C(=O)N(C(C)C)C3)CC1` [Example 351, (R)-4-(1-(2-(4-acetylpiperazin-1-yl)-6-isopropyl-7-oxo-6,7-dihydro-5H-pyrrolo[3,4-d]pyrimidin-4-ylamino)ethyl)benzonitrile], the figures for the IC50 in experiment [1] and in experiment [2] were 3300 nM and 1940 nM, respectively.
